In patent US5929038A, “Pharmaceutical preparations which inhibit hepatitis B virus (HBV) replication” (Choongwae Pharmaceutical Co., Ltd., priority 1992, dated 1999):
“And” between values parts separate entries of the source, which are not always exact repeats. Equal entries are not always repeated. “Also recorded” adds a separate entry of the source. Where two headings read alike, the source gives them in different places.

Tests used:
HBV DNA replication = experiment: Effects on HBV DNA replication in 2.2.15 cells in culture (intracellular HBV DNA and HBV virion DNA); type: cell-based, hepatitis B virus; settings: for Intracellular HBV DNA, Mono. / Intracellular HBV DNA, RI (Replicating Intermediate): 24 hrs following the 9th day of treatment; for HBV Virion DNA, Day 0: Day 0, before first dose
2.2.15 cells = experiment: Cell toxicity test (neutral red dye uptake); type: cell-based; settings: plate 23
Experimental: Toxicity testing was performed in 96-well flat bottomed tissue culture plates. These cells were cultured and treated on same schedule as the test compounds used for antiviral evaluation (example 1). Each group at four concentrations was tested in triplicate cultures. Uptake of neutral red dye was used to determine the relative level of toxicity. The absorbance of internalized dye at 510 nm (A510) was used for the quantitative analysis. Values are presented as a percentage of the average A510 values (mean ± standard deviation) in 9 separate cultures of untreated cells maintained on the same 96-well plate as used for the test compound. The percentage of dye uptake in the 9 controlled cultures on plate 23 was 100±4.

mice = type: in vivo; settings: for Alkaline phosphatase / SGOT / Triglyceride: serum at 24 hours; for Fatalities: 24 hours, ten mice
gram positive bacteria = settings: cited from earlier work
[1] = tested on: hepatic damage induced by carbon tetrachloride; settings: laboratory animals; cited from earlier work
[2] = tested on: liver damage caused by α-amantin intoxication; settings: mice; cited from earlier work
Sarcoma 180 cells = settings: cited from earlier work
[3] = 30 μM + 30'Gly. (incubated 30 min with glycosidase)
[4] = 30 μM + Gly. (first group, 123AE/AF/BE/BF)
[5] = 30 μM + Gly. (second group, 123AG/AH/BG/BH)
[6] = 100 μM + 30'Gly. (incubated 30 min with glycosidase)
[7] = 300 μM + 30'Gly. (incubated 30 min with glycosidase)
[8] = 300 μM + Gly. (glucosidase, no incubation)
[9] = 1000 μM + 30'Gly. (incubated 30 min with glycosidase)
[10] = 1000 μM + Gly. (glucosidase, no incubation)

OCC1=CC(O)C2C=COC(O[C@@H]3O[C@H](CO)[C@@H](O)[C@H](O)[C@H]3O)C12 (stereo partly drawn) [Aucubin, 1,4,5, 7α-tetrahydro-5-hydroxy-17-(hydroxymethyl)cyclopenta[c]pyran-1-yl-β-D-glucopyranose]
inhibition of HBV DNA biosynthesis / antiviral activity (in words) (HBV DNA replication): exerts an antiviral activity aganist HBV infection; also recorded: marked inhibition of HBV DNA biosynthesis
Intracellular HBV DNA, Mono. (HBV DNA replication; [3]): 2.5 pg/μg cell DNA and 2.4 pg/μg cell DNA and 2.3 pg/μg cell DNA and 2.7 pg/μg cell DNA
Intracellular HBV DNA, RI (Replicating Intermediate) (HBV DNA replication; [3]): 92 pg/μg cell DNA and 68 pg/μg cell DNA and 59 pg/μg cell DNA
HBV Virion DNA, Day 0 (HBV DNA replication; 30 μM + 30'Gly.): 61 pg/ml culture medium and 79 pg/ml culture medium and 68 pg/ml culture medium
HBV Virion DNA, Day 3 (HBV DNA replication; 30 μM + 30'Gly.): 85 pg/ml culture medium and 94 pg/ml culture medium and 51 pg/ml culture medium and 75 pg/ml culture medium
HBV Virion DNA, Day 6 (HBV DNA replication; 30 μM + 30'Gly.): 70 pg/ml culture medium and 62 pg/ml culture medium and 55 pg/ml culture medium and 75 pg/ml culture medium
HBV Virion DNA, Day 9 (HBV DNA replication; 30 μM + 30'Gly.): 80 pg/ml culture medium and 48 pg/ml culture medium and 87 pg/ml culture medium and 91 pg/ml culture medium
Intracellular HBV DNA, Mono. (HBV DNA replication; [4]): 2.6 pg/μg cell DNA and 2.8 pg/μg cell DNA and 2.4 pg/μg cell DNA and 2.1 pg/μg cell DNA
Intracellular HBV DNA, RI (Replicating Intermediate) (HBV DNA replication; [4]): 21 pg/μg cell DNA and 27 pg/μg cell DNA and 22 pg/μg cell DNA and 26 pg/μg cell DNA
HBV Virion DNA, Day 0 (HBV DNA replication; [4]): 52 pg/ml culture medium and 76 pg/ml culture medium and 55 pg/ml culture medium
HBV Virion DNA, Day 3 (HBV DNA replication; [4]): 59 pg/ml culture medium and 77 pg/ml culture medium and 51 pg/ml culture medium
HBV Virion DNA, Day 6 (HBV DNA replication; [4]): 40 pg/ml culture medium and 48 pg/ml culture medium and 66 pg/ml culture medium and 59 pg/ml culture medium
HBV Virion DNA, Day 9 (HBV DNA replication; [4]): 15 pg/ml culture medium and 22 pg/ml culture medium
Intracellular HBV DNA, Mono. (HBV DNA replication; [5]): 2.6 pg/μg cell DNA and 2.8 pg/μg cell DNA and 2.4 pg/μg cell DNA and 2.1 pg/μg cell DNA
Intracellular HBV DNA, RI (Replicating Intermediate) (HBV DNA replication; [5]): 70 pg/μg cell DNA and 75 pg/μg cell DNA and 63 pg/μg cell DNA and 68 pg/μg cell DNA
HBV Virion DNA, Day 0 (HBV DNA replication; [5]): 67 pg/ml culture medium
HBV Virion DNA, Day 3 (HBV DNA replication; [5]): 94 pg/ml culture medium and 82 pg/ml culture medium and 97 pg/ml culture medium and 62 pg/ml culture medium
HBV Virion DNA, Day 6 (HBV DNA replication; [5]): 58 pg/ml culture medium and 61 pg/ml culture medium and 69 pg/ml culture medium
HBV Virion DNA, Day 9 (HBV DNA replication; [5]): 55 pg/ml culture medium and 72 pg/ml culture medium and 70 pg/ml culture medium and 67 pg/ml culture medium
Intracellular HBV DNA, Mono. (HBV DNA replication; [6]): 2.5 pg/μg cell DNA and 2.4 pg/μg cell DNA and 2.3 pg/μg cell DNA and 2.7 pg/μg cell DNA
Intracellular HBV DNA, RI (Replicating Intermediate) (HBV DNA replication; [6]): 33 pg/μg cell DNA and 32 pg/μg cell DNA and 27 pg/μg cell DNA and 26 pg/μg cell DNA
HBV Virion DNA, Day 0 (HBV DNA replication; 100 μM + 30'Gly.): 55 pg/ml culture medium and 51 pg/ml culture medium and 86 pg/ml culture medium
HBV Virion DNA, Day 3 (HBV DNA replication; 100 μM + 30'Gly.): 80 pg/ml culture medium and 49 pg/ml culture medium and 50 pg/ml culture medium and 57 pg/ml culture medium
HBV Virion DNA, Day 6 (HBV DNA replication; 100 μM + 30'Gly.): 50 pg/ml culture medium and 66 pg/ml culture medium and 41 pg/ml culture medium and 45 pg/ml culture medium
HBV Virion DNA, Day 9 (HBV DNA replication; 100 μM + 30'Gly.): 16 pg/ml culture medium
Intracellular HBV DNA, Mono. (HBV DNA replication; [7]): 2.4 pg/μg cell DNA and 2.6 pg/μg cell DNA and 1.9 pg/μg cell DNA and 2.0 pg/μg cell DNA
Intracellular HBV DNA, RI (Replicating Intermediate) (HBV DNA replication; [7]): 11 pg/μg cell DNA and 10 pg/μg cell DNA and 7 pg/μg cell DNA and 9 pg/μg cell DNA
HBV Virion DNA, Day 0 (HBV DNA replication; 300 μM + 30'Gly.): 88 pg/ml culture medium and 51 pg/ml culture medium and 50 pg/ml culture medium and 59 pg/ml culture medium
HBV Virion DNA, Day 3 (HBV DNA replication; 300 μM + 30'Gly.): 80 pg/ml culture medium and 55 pg/ml culture medium and 61 pg/ml culture medium
HBV Virion DNA, Day 6 (HBV DNA replication; 300 μM + 30'Gly.): 54 pg/ml culture medium and 39 pg/ml culture medium and 44 pg/ml culture medium
HBV Virion DNA, Day 9 (HBV DNA replication; 300 μM + 30'Gly.): 9 pg/ml culture medium and 7 pg/ml culture medium and 6 pg/ml culture medium and 8 pg/ml culture medium
Intracellular HBV DNA, Mono. (HBV DNA replication; [8]): 2.0 pg/μg cell DNA and 2.4 pg/μg cell DNA and 2.5 pg/μg cell DNA
Intracellular HBV DNA, RI (Replicating Intermediate) (HBV DNA replication; [8]): 7 pg/μg cell DNA and 6 pg/μg cell DNA and 5 pg/μg cell DNA and 9 pg/μg cell DNA
HBV Virion DNA, Day 0 (HBV DNA replication; 300 μM + Gly.): 54 pg/ml culture medium and 59 pg/ml culture medium and 77 pg/ml culture medium and 66 pg/ml culture medium
HBV Virion DNA, Day 3 (HBV DNA replication; 300 μM + Gly.): 66 pg/ml culture medium and 89 pg/ml culture medium and 98 pg/ml culture medium
HBV Virion DNA, Day 6 (HBV DNA replication; 300 μM + Gly.): 54 pg/ml culture medium and 48 pg/ml culture medium and 44 pg/ml culture medium and 51 pg/ml culture medium
HBV Virion DNA, Day 9 (HBV DNA replication; 300 μM + Gly.): 9 pg/ml culture medium and 7 pg/ml culture medium and 5 pg/ml culture medium and 6 pg/ml culture medium
Intracellular HBV DNA, Mono. (HBV DNA replication; [9]): 2.3 pg/μg cell DNA and 2.0 pg/μg cell DNA and 2.1 pg/μg cell DNA
Intracellular HBV DNA, RI (Replicating Intermediate) (HBV DNA replication; [9]): 3 pg/μg cell DNA and 2 pg/μg cell DNA and 4 pg/μg cell DNA
HBV Virion DNA, Day 0 (HBV DNA replication; 1000 μM + 30'Gly.): 84 pg/ml culture medium and 70 pg/ml culture medium and 79 pg/ml culture medium and 59 pg/ml culture medium
HBV Virion DNA, Day 3 (HBV DNA replication; 1000 μM + 30'Gly.): 67 pg/ml culture medium and 66 pg/ml culture medium and 78 pg/ml culture medium
HBV Virion DNA, Day 6 (HBV DNA replication; 1000 μM + 30'Gly.): 20 pg/ml culture medium and 17 pg/ml culture medium and 24 pg/ml culture medium
HBV Virion DNA, Day 9 (HBV DNA replication; 1000 μM + 30'Gly.): 2 pg/ml culture medium and 3 pg/ml culture medium
Intracellular HBV DNA, Mono. (HBV DNA replication; [10]): 2.2 pg/μg cell DNA and 2.1 pg/μg cell DNA and 2.3 pg/μg cell DNA and 2.6 pg/μg cell DNA
Intracellular HBV DNA, RI (Replicating Intermediate) (HBV DNA replication; [10]): 3 pg/μg cell DNA and 2 pg/μg cell DNA
HBV Virion DNA, Day 0 (HBV DNA replication; 1000 μM + Gly.): 64 pg/ml culture medium and 81 pg/ml culture medium and 80 pg/ml culture medium
HBV Virion DNA, Day 3 (HBV DNA replication; 1000 μM + Gly.): 70 pg/ml culture medium and 67 pg/ml culture medium
HBV Virion DNA, Day 6 (HBV DNA replication; 1000 μM + Gly.): 25 pg/ml culture medium and 18 pg/ml culture medium and 22 pg/ml culture medium and 20 pg/ml culture medium
HBV Virion DNA, Day 9 (HBV DNA replication; 1000 μM + Gly.): 1 pg/ml culture medium
Amount of dye uptake (2.2.15 cells; Aucubin + 30'GLY. (preincubated 30 min with glucosidase), 300 μM): 99 ± 2 % of control
Amount of dye uptake (2.2.15 cells; Aucubin + 30'GLY. (preincubated 30 min with glucosidase), 1000 μM): 99 ± 2 % of control
Amount of dye uptake (2.2.15 cells; Aucubin + 30'GLY. (preincubated 30 min with glucosidase), 3000 μM): 82 ± 2 % of control
Amount of dye uptake (2.2.15 cells; Aucubin + 30'GLY. (preincubated 30 min with glucosidase), 10,000 μM): 67 ± 3 % of control
Amount of dye uptake (2.2.15 cells; Aucubin + GLY. (glucosidase without preincubation), 300 μM): 99 ± 2 % of control
Amount of dye uptake (2.2.15 cells; Aucubin + GLY. (glucosidase without preincubation), 1000 μM): 99 ± 1 % of control
Amount of dye uptake (2.2.15 cells; Aucubin + GLY. (glucosidase without preincubation), 3000 μM): 93 ± 5 % of control
Amount of dye uptake (2.2.15 cells; Aucubin + GLY. (glucosidase without preincubation), 10,000 μM): 63 ± 6 % of control
Amount of dye uptake (2.2.15 cells; Aucubin alone, 300 μM): 99 ± 1 % of control
Amount of dye uptake (2.2.15 cells; Aucubin alone, 1000 μM): 100 ± 1 % of control
Amount of dye uptake (2.2.15 cells; Aucubin alone, 3000 μM): 85 ± 3 % of control
Amount of dye uptake (2.2.15 cells; Aucubin alone, 10,000 μM): 45 ± 3 % of control
Alkaline phosphatase (mice; 100 mg/kg i.p.): 236 IU/L
SGOT (mice; 100 mg/kg i.p.): 261 IU/L
Fatalities (mice; 100 mg/kg intraperitoneal single dose): 0 No.
Alkaline phosphatase (mice; 300 mg/kg i.p.): 157 IU/L
SGOT (mice; 300 mg/kg i.p.): 194 IU/L
Triglyceride (mice; 300 mg/kg i.p.): 35 mg/dL
Fatalities (mice; 300 mg/kg intraperitoneal single dose): 0 No.
Alkaline phosphatase (mice; 600 mg/kg i.p.): 135 IU/L
SGOT (mice; 600 mg/kg i.p.): 179 IU/L
Triglyceride (mice; 600 mg/kg i.p.): 39 mg/dL
Fatalities (mice; 600 mg/kg intraperitoneal single dose): 0 No.
SGOT (mice; 900 mg/kg i.p.): 162 IU/L
Triglyceride (mice; 900 mg/kg i.p.): 51 mg/dL
Fatalities (mice; 900 mg/kg intraperitoneal single dose): 0 No.
fatality (in words) (mice; 100-900 mg/kg i.p.): no fatality
activities of SGOT and alkaline phosphatase (mice; high dose): slight decline
serious toxic effect (in words) (mice; high dose): no serious toxic effect occurred
triglyceride contents (mice; high dose): elevated slightly
minimum fatal dose (mice; mouse, in vivo, ip): more than 900 mg/kg
Antibacterial activity (gram positive bacteria): Antibacterial activity was noted mainly on gram positive bacteria
Liver-protective activity against carbon tetrachloride [1]: protect the liver from hepatic damage induced by carbon tetrachloride intoxication
Liver-protective activity against α-amantin [2]: protects the liver from damages caused by α-amantin intoxication in mice
Inhibitory effects on RNA and protein biosynthesis (Sarcoma 180 cells): can exert inhibitory effects on RNA and protein biosynthesis in Sarcoma 180 cells
